# Data reported in ChEMBL document CHEMBL1201862, “PubChem BioAssay data set” (2004).
# Counter-ions that a name gives are not always drawn. Calls of active or inactive are those of the source.
# How the values were obtained:
# [1] = blockers of CRF-binding protein–CRF-R2 complex – cell-based, uHTS hits, 384-well, dose response (AID 651639); assay type: functional, Homo sapiens; conditions: read-out: IC50_Mean
# [2] = molecular target: T1, Corticotropin-releasing factor receptor 2/Corticotropin-releasing factor-binding protein (Homo sapiens, UniProt P24387+Q13324); assay: Dose Response confirmation of uHTS hits for small molecule antagonists of the CRF-binding protein and CRF-R2 receptor complex.; assay type: functional; conditions: read-out: IC50_Mean
# T1 sequence (Q13324 whole entry): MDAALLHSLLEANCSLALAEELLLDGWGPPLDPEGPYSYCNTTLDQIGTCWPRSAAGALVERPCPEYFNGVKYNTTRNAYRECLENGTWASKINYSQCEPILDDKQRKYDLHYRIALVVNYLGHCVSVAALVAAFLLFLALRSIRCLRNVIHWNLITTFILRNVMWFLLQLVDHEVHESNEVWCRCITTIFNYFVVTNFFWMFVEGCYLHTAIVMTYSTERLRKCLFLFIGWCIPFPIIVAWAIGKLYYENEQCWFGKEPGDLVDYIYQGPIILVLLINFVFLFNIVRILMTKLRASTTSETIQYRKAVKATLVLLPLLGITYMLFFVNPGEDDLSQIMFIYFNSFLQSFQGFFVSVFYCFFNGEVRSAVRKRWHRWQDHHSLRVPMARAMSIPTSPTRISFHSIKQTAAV
# T1 sequence (P24387 whole entry): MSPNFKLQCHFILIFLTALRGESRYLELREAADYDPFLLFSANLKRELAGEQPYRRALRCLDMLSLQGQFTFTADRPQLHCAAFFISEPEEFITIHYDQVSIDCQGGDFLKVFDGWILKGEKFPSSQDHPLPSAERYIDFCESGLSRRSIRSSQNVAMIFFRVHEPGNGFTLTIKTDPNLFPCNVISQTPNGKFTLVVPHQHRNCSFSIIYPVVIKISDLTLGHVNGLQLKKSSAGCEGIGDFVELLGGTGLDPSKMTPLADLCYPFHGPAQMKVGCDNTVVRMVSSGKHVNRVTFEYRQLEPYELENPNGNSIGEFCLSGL
# [3] = molecular target: T1, Corticotropin-releasing factor receptor 2/Corticotropin-releasing factor-binding protein; assay: activators of CRF receptor 2 with binding protein – uHTS hits, confirmation (AID 602473); assay type: functional; conditions: read-out: EC50_Mean
# [4] = molecular target: T2, Sentrin-specific protease 8 (Homo sapiens, UniProt Q96LD8); assay type: functional
# T2 sequence (Q96LD8 whole entry): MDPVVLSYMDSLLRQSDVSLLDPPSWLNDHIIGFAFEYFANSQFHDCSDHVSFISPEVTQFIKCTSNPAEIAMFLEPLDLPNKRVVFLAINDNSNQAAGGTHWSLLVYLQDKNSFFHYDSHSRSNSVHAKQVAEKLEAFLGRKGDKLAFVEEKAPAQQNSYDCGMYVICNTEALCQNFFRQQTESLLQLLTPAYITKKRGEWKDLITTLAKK
# [5] = molecular target: T2, Sentrin-specific protease 8; assay type: functional; remark: listed apart in the source
# Cytochrome P450 3A4 = Cytochrome P450 3A4 (Homo sapiens, UniProt P08684);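 note: CYP3A4 tested as one member of a cytochrome P450 panel screen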
# INS1 = assay: INS-1E survival protection against cytokine death – cell-based, luminescence, retest, dose response (AID 449756); assay type: functional; conditions: Rattus norvegicus;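 note: cell death triggered by IL-1 beta plus TNF-alpha plus IFN-gamma mixture; protective hits raise ATP signal compared with cytokine alone wells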
# Cytochrome P450 2C9 = Cytochrome P450 2C9 (Homo sapiens, UniProt P11712)
# [6] = molecular target: Photoreceptor-specific nuclear receptor (Homo sapiens, UniProt Q9Y5X4); assay type: functional, cell-based;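 note: CHO-S cells with Gal4-NCOR and VP16-NR2E3 two-hybrid luciferase reporter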
# Protein Tat = molecular target: T3, Protein Tat (Human immunodeficiency virus type 1 group M subtype B (isolate HXB2)(HIV-1), UniProt P04608); assay type: functional;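 note: tat binding to TAR RNA read out by fluorescence polarization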
# T3 sequence (P04608 whole entry): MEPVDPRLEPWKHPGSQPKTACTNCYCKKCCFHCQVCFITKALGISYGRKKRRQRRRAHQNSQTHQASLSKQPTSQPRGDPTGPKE
# [7] = molecular target: T4, DNA repair and recombination protein RAD54-like (Homo sapiens, UniProt Q92698); assay: RAD54 Holliday junction migration blockers – biochemical, fluorescence, cherry-picked samples, dose series, confirmation (AID 651657); assay type: functional
# T4 sequence (Q92698 whole entry): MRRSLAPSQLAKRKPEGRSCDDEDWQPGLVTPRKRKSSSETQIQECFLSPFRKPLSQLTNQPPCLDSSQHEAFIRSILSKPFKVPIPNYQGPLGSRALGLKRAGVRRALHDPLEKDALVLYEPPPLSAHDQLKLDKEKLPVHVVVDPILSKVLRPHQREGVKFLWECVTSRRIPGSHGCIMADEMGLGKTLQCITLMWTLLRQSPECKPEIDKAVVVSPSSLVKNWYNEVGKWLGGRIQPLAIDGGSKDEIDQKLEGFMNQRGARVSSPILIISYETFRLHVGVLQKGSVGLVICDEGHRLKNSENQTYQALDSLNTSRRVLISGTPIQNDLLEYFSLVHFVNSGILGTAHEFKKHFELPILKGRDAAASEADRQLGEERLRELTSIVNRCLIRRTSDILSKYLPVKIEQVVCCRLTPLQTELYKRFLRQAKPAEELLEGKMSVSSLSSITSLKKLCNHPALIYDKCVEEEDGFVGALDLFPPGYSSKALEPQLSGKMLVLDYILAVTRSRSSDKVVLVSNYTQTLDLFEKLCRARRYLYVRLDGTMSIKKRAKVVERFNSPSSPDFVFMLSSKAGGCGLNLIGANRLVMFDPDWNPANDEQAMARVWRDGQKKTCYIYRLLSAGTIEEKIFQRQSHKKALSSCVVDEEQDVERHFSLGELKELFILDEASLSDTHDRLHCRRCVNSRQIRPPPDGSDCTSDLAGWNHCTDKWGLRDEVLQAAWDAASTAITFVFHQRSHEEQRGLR
# cells [8] = assay type: functional, cell-based
# cells [9] = assay type: functional, cell-based; remark: listed apart in the source
# [10] = Trypanosoma cruzi growth suppression in host cells – NIH3T3 host cells, beta-gal luminescence, confirmation (AID 2044); assay type: functional, cell-based;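 note: intracellular parasites grown in NIH/3T3 mouse fibroblasts as host cells; luminescent beta-galactosidase reporter signal from transgenic T. cruzi replicating inside host cells; inhibitors lower the luminescence signal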
# [11] = NIH3T3 cell viability loss – ATP luminescence, mouse fibroblasts, counter-screen, dose response (AID 2010); assay type: functional, cell-based;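 note: cells exposed to compound for about 90 hours before reading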
# Kallikrein-7 = Kallikrein-7 (Homo sapiens, UniProt P49862); assay: Fluorescence Intensity-based biochemical primary high throughput dose response assay to identify activators of kallikrein-7 (K7) zymogen.
# [12] = molecular target: T5, Hepatocyte nuclear factor 4-alpha (Homo sapiens, UniProt P41235); assay type: functional, cell-based;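 note: biochemical luminescence-based dose-response counterscreen measuring inhibition of HNF4 dimerization, run alongside a screen for blockers of ABHD5–perilipin-5 interaction; split luciferase complementation of HNF4 fusion proteins in cell lysate measuring dimerization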
# T5 sequence (P41235 whole entry): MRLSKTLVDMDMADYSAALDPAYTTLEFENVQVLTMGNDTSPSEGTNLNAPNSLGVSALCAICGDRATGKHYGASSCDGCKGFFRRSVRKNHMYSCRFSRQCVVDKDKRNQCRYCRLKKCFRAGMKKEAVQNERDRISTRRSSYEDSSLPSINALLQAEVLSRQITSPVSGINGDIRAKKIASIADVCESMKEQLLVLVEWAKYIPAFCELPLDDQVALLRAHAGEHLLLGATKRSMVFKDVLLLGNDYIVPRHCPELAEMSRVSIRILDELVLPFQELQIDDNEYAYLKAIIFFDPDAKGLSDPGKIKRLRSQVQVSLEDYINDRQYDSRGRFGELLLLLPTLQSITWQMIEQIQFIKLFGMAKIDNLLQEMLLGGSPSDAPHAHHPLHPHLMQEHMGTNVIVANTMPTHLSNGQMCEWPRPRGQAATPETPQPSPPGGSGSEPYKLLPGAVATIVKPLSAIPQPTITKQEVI
# [13] = molecular target: T6, Polyadenylate-binding protein 1 (Homo sapiens, UniProt P11940); assay: MLLE domain peptide-binding blockers, IC50 – biochemical, fluorescence polarization, FITC-PAM2 peptide, dose response (AID 602259); assay type: functional; conditions: read-out: IC50_Mean
# [14] = molecular target: T6, Polyadenylate-binding protein 1; assay: MLLE binding blockers, Cy5 peptide tracer – biochemical, fluorescence polarization, Cy5-PAM2 peptide, secondary, miRNA deadenylation inhibitor project, dose response (AID 602260); assay type: functional; conditions: read-out: IC50_Mean
# [15] = viability loss in THP-1 monocytes – THP-1 cells, cytotoxicity control for Vif-APOBEC3G degradation inhibitor project, dose response (AID 1117359); assay type: functional; conditions: THP-1
# [16] = reduced cellular PGC1a acetyl-lysine signal – cell-based, cherry-picked samples, dose response (AID 720514); assay type: functional;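 note: potency may reflect raised or lowered acetylation signal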
# [17] = viability of HCT116 lacking mutant beta-catenin – cell-based, human colon tumor, dose response (AID 1045); assay type: functional;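 note: HCT116 colon tumor cells with beta catenin knocked out; cells exposed to compound for 60 hours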
# [18] = viability of PTEN-deleted HCT116 cells – cell-based, HCT116 PTEN knockout, dose response (AID 1047); assay type: functional;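 note: HCT116 colon tumor cells with PTEN knocked out; cells exposed to compound for 60 hours before readout; potency for loss of cell viability measured by luminescence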
# [19] = blockers of bursicon-stimulated LGR2 cAMP reporter – cell-based, HEK293, CRE-luciferase reporter, cherry pick, set 2, dose response (AID 743343); assay type: functional;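 note: transfected cells were stimulated with diluted bursicon conditioned medium after compound addition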
# [20] = A549 cell cytotoxicity, dose response, cytotoxicity control, plate reader, cherry-pick, antagonist series (AID 743412); assay type: functional, cell-based
# [21] = viability loss in HEK293 cells – cell-based, plate reader, cherry-picked samples, cytotoxicity control, dose response (AID 743446); assay type: functional
# [22] = blockade of melanocortin 4 receptor signaling – cell-based, plate reader, cherry pick, counter-screen for LGR2 antagonist project, dose response (AID 743444); assay type: functional;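 note: transfected HEK 293 cells stimulated with alpha-MSH peptide; potency of inhibitors of the alpha-MSH evoked signal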
# Cytochrome P450 1A2 = molecular target: T7, Cytochrome P450 1A2 (Homo sapiens, UniProt P05177);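 note: PubChem cytochrome P450 panel assay, CYP1A2 panel member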
# T7 sequence (P05177 whole entry): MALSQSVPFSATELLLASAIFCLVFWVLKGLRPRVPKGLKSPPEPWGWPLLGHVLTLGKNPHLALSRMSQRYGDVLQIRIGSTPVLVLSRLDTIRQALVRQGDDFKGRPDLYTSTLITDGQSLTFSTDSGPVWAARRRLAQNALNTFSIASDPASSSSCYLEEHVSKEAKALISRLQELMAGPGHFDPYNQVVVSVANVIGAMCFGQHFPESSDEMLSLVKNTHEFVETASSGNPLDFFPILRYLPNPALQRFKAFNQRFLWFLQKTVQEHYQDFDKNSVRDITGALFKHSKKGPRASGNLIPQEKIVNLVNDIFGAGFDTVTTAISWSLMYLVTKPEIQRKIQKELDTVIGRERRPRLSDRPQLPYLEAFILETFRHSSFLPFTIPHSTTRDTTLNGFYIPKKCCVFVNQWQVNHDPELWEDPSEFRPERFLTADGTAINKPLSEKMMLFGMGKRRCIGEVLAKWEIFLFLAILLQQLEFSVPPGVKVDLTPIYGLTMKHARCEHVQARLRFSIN
# Kallikrein-7, sequence (P49862 whole entry, the tested form may be a part): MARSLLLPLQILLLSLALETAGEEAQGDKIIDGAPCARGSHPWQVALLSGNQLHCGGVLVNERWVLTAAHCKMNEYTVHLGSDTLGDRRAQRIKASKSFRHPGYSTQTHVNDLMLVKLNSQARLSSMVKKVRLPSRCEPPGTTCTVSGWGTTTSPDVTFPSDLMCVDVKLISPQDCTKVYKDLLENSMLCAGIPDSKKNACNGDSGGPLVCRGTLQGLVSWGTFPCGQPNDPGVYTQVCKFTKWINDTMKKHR
# Cytochrome P450 2C9, sequence (P11712 whole entry, the tested form may be a part): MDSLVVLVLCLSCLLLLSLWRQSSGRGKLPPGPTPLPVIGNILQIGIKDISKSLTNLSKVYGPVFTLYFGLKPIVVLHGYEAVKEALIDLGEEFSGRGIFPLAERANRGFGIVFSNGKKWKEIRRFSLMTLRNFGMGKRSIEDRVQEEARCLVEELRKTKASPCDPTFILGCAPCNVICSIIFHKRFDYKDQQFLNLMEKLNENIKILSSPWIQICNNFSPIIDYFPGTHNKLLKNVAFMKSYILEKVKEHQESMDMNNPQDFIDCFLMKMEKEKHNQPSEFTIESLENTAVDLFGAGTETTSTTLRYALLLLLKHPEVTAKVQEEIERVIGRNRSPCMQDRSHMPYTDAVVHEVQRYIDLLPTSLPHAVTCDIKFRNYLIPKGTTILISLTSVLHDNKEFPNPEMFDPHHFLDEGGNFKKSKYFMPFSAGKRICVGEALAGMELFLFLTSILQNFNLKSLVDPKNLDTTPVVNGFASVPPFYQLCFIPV
# Photoreceptor-specific nuclear receptor, sequence (Q9Y5X4 whole entry, the tested form may be a part): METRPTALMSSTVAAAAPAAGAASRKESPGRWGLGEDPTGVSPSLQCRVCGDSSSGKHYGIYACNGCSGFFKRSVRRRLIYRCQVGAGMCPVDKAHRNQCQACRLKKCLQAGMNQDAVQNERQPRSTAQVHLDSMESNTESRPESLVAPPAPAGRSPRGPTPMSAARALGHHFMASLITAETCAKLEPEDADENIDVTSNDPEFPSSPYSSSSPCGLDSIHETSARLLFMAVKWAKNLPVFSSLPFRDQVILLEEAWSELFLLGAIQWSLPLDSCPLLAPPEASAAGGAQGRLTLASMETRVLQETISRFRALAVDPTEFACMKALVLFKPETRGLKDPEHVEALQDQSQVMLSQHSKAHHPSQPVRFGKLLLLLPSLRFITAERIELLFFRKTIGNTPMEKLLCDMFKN
# Cytochrome P450 3A4, sequence (P08684 whole entry): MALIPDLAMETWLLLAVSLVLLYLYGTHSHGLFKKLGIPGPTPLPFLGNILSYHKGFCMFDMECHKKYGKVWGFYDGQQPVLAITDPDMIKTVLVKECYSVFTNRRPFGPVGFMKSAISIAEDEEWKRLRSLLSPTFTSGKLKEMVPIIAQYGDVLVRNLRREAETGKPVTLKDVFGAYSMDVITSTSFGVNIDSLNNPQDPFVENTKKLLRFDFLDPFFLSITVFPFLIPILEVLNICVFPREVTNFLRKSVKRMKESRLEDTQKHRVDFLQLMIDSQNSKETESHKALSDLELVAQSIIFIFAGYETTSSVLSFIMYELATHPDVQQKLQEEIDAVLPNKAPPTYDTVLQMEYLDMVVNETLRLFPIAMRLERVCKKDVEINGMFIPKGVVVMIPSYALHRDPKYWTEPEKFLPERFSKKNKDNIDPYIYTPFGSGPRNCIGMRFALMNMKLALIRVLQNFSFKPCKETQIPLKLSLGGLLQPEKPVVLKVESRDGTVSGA
# T6 sequence (P11940 whole entry, the tested form may be a part): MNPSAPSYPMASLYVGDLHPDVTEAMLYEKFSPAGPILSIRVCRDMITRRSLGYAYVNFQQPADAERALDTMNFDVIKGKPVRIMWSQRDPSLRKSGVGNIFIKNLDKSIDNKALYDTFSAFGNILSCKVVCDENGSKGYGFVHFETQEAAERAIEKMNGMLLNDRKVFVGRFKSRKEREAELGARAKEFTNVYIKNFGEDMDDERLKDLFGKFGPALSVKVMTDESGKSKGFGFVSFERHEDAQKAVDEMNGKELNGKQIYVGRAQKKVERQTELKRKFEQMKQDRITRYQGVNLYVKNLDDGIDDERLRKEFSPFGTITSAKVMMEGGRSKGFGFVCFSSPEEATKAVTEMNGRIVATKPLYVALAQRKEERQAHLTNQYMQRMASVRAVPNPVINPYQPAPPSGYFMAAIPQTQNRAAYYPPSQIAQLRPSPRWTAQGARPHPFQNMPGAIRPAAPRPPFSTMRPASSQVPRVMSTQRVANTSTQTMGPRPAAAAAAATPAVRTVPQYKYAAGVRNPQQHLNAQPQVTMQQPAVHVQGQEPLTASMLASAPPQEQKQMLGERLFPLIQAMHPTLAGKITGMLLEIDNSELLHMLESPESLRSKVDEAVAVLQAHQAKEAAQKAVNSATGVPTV
smiles,measurement,setting,value
O=c1c2ccccc2n(Cc2ccc(F)cc2)c(=O)n1C1CCCC1,IC50,[1],> 20 µM (inactive)
same,IC50,[2],3.48 µM (active)
same,EC50,[3],> 53 µM (inactive)
CC1(OC(=O)C2CCCC2)C(=O)C=C2C=C3CCCCN3C=C2C1=O (stereo unspecified),IC50,[4],3.82 µM (active)
same,IC50,[5],4.28 µM (active)
O=c1cc(N2CCN(c3cccc(Cl)c3)CC2)[nH]c(=O)n1C1CCCCC1,AC50,Cytochrome P450 3A4,3.55 µM (inconclusive)
same,AC50,INS1,1.15 µM (active)
same,AC50,Cytochrome P450 2C9,3.16 µM (inconclusive)
same,IC50,[6],0.0374 µM (active)
CCc1nnc(NS(=O)(=O)c2ccc(NC(=S)NC(=O)/C=C/c3ccccc3)cc2)s1,IC50,[1],> 20 µM (inactive)
same,IC50,[2],< 0.368 µM (active)
same,EC50,[3],> 53 µM (inactive)
CC1(OC(=O)c2ccc(Cl)nc2)C(=O)C=C2C=C3CCCN3C=C2C1=O (stereo unspecified),IC50,[4],5.33 µM (active)
same,IC50,[5],8.11 µM (active)
Cc1cc(Cl)cc2c1NC(=O)[C@]21[C@@H]2C(=O)N(Cc3ccccc3)C(=O)[C@@H]2[C@@H]2CCCN21,IC50,Protein Tat,> 100 µM (active)
CCOC(=O)c1c(C)n(C)c2ccc(OCC(O)CN3CCC(C)CC3)cc12 (stereo unspecified),AC50,[7],56.3 µM (active)
COc1cc(OC)c2nc(C)c3c(c2c1)N(c1ccc(O)cc1)CC3,EC50,cells [8],> 350 µM (not active)
same,EC50,cells [9],> 350 µM (not active)
same,EC50,[10],2.49 µM (active)
same,AC50,Cytochrome P450 3A4,10 µM (inconclusive)
same,EC50,[11],> 60 µM (not active)
same,AC50,[7],9.09 µM (active)
Cc1ccc(C(=O)Nc2ccc3nccnc3c2)cc1,AC50,Cytochrome P450 2C9,35.5 µM (inconclusive)
same,EC50,Kallikrein-7,9.72 µM (active)
Cc1cc(N2CCCC2)nc2ccc(NC(=S)NCCCOC(C)C)cc12,EC50,Kallikrein-7,> 69.5 µM (inactive)
Cc1cccc(C)c1NC(=O)C(c1ccccc1)N1CC(=O)Nc2ccccc21 (stereo unspecified),EC50,Kallikrein-7,> 69.5 µM (inactive)
Cc1ccc(S(=O)(=O)N(CC(=O)Nc2ccccc2C(=O)O)c2ccc(Cl)cc2)cc1,IC50,[1],14.4 µM (active)
same,IC50,[2],10.3 µM (active)
same,EC50,[3],> 53 µM (inactive)
O=C(c1cc2n(n1)C(C(F)(F)F)CC(c1ccco1)N2)N1CCc2ccccc2C1 (stereo unspecified),IC50,Protein Tat,> 100 µM (active)
CC(C)CCN1CCN(Cc2cccn2-c2cccnc2)CC1CCO (stereo unspecified),IC50,Protein Tat,> 100 µM (active)
CCOC1=CC2=C(C(=O)C(Cl)=CC2=O)[C@@H]2CN(S(=O)(=O)c3ccc(C)cc3)[C@@H](c3ccccc3)[C@H]12,IC50,[12],0.814 µM (active)
same,IC50,[13],> 66 µM (inactive)
same,IC50,[14],> 66 µM (inactive)
COc1cc(C)c(C2NC(=O)c3ccccc3N2)cc1C (stereo unspecified),CC50,[15],2.86 µM (active)
Cc1cccc(C)c1NC(=O)C(c1ccnc2ccccc12)n1c(=O)c(-c2ccco2)nc2ccccc21 (stereo unspecified),IC50,[12],3.64 µM (active)
O=C1C=CCCN1C(=O)/C=C/c1ccccc1Cl,AC50,[16],0.617 µM (active)
Cc1ccc(C#N)c(SCc2nnc(-c3ccc(Cl)cc3)o2)n1,EC50,[17],15.7 µM (active)
same,EC50,[18],8.1 µM (active)
same,AC50,[19],0.181 µM (active)
same,AC50,[20],30.9 µM (active)
same,AC50,[21],> 52 µM (inactive)
same,AC50,[22],0.209 µM (active)
same,IC50,[6],1.47 µM (active)
CCN(CC)CCOCCOC(=O)C1(c2ccccc2)CCCC1 [CARBETAPENTANE CITRATE],IC50,[12],10.9 µM (inactive)
same,AC50,Cytochrome P450 1A2,12.6 µM (inconclusive)
